Measurements as given in patent publication US6881418B2, “Liquid deodorant killing microorganism and method of microorganism-killing deodorization” (K.I Chemical Industry Co., Ltd., priority 2001, dated 2005).

Experiments:
[1] = tested on: Escherichia genus microbes; experiment: Test of fast-acting microbicidal efficacy (viable cell count against contact time); assay type: cell-based; details: pH 8
Procedure: Escherichia genus microbes, which were subjected to cell washing, were diluted with phosphate/citrate buffer solution (pH 8) to a concentration of approximately 10^6 CFU/ml, and 1 L each of the prepared solution was poured into glass beakers. Example 1 or 8, and the powdered substance of Compound A1 were each added thereto so as to bring to a prescribed concentration (indicated based on active ingredient), respectively, and the mixtures were stirred for 90 minutes. A portion of each mixture was taken at 5, 10, 30, and 90 minutes and was diluted with sterilized water. Then, the diluted mixture was inoculated onto a nutrient plate agar medium and cultured in an incubator at 30° C. for 3 days. Then, viable cells therein were counted. The results are shown in Tables 6 and 7 in the unit of CFU/ml. Tables 6 and 7 indicate the results obtained by conducting the tests over two separate occasions under the above conditions.

[2] = Test of sustainability of deodorant effect against active sludge (gas detector tubes); details: gas phase over 40% sludge suspension, ND = equal to or lower than detection limit
Procedure: Active sludge (dehydrated cake, water content 70%) obtained from a sewage treatment plant was used for tests on the deodorant effect. The obtained active sludge was suspended with distilled water to form a 40% suspension. Example 9, Comparative Example 2, or powdered Compound A2 was then added to the suspension in a prescribed amount (indicated based on active ingredient) and stirred. 200 g of each suspension containing Example 9, Comparative Example 2, or powdered Compound A2 was transferred to a 1-liter Erlenmeyer flask, and the flask was sealed with a rubber stopper provided with 2 glass pipes each having a rubber tube and a pinchcock. […] The measurement of each gas component was conducted by inserting a gas detector tube into one of the rubber tubes with both pinchcocks open. Used herein were a gas detector 3L (GASTEC CORPORATION) for ammonia, a gas detector 3L (GASTEC CORPORATION) for hydrogen sulfide, and a gas detector 71 (GASTEC CORPORATION) for methyl mercaptan.

[3] = 10 ppm active ingredient, 1 hour later
[4] = 10 ppm active ingredient, 2 hours later
[5] = 20 ppm active ingredient, 1 hour later
[6] = 20 ppm active ingredient, 2 hours later
[7] = 40 ppm active ingredient, 1 hour later
[8] = 40 ppm active ingredient, 2 hours later
[9] = 80 ppm active ingredient, 2 hours later

CC1(C)C(=O)N(Br)C(=O)N1Br [Compound A1, 1,3-dibromo-5,5-dimethylhydantoin]
viable cells ([1]; 0.25 ppm active ingredient, contact time 5 min, Table 6): 3.0 × 10^6 CFU/ml | viable cells ([1]; 0.25 ppm active ingredient, contact time 5 min, Table 7): 5.6 × 10^6 CFU/ml | viable cells ([1]; 0.25 ppm active ingredient, contact time 10 min, Table 6): 3.1 × 10^6 CFU/ml | viable cells ([1]; 0.25 ppm active ingredient, contact time 10 min, Table 7): 5.1 × 10^6 CFU/ml | viable cells ([1]; 0.25 ppm active ingredient, contact time 30 min, Table 6): 4.5 × 10^5 CFU/ml | viable cells ([1]; 0.25 ppm active ingredient, contact time 30 min, Table 7): 3.7 × 10^5 CFU/ml | viable cells ([1]; 0.25 ppm active ingredient, contact time 90 min, Table 6): 3.7 × 10^5 CFU/ml | viable cells ([1]; 0.25 ppm active ingredient, contact time 90 min, Table 7): 2.7 × 10^5 CFU/ml | viable cells ([1]; 0.5 ppm active ingredient, contact time 5 min, Table 6): 3.0 × 10^6 CFU/ml | viable cells ([1]; 0.5 ppm active ingredient, contact time 5 min, Table 7): 5.0 × 10^6 CFU/ml | viable cells ([1]; 0.5 ppm active ingredient, contact time 10 min, Table 6): 7.7 × 10^5 CFU/ml | viable cells ([1]; 0.5 ppm active ingredient, contact time 10 min, Table 7): 6.7 × 10^5 CFU/ml | viable cells ([1]; 0.5 ppm active ingredient, contact time 30 min, Table 6): 8.0 × 10^4 CFU/ml | viable cells ([1]; 0.5 ppm active ingredient, contact time 30 min, Table 7): 8.0 × 10^4 CFU/ml | viable cells ([1]; 0.5 ppm active ingredient, contact time 90 min, Table 6): <10^2 CFU/ml | viable cells ([1]; 0.5 ppm active ingredient, contact time 90 min, Table 7): <10^2 CFU/ml | viable cells ([1]; 1.0 ppm active ingredient, contact time 5 min, Table 6): 2.9 × 10^6 CFU/ml | viable cells ([1]; 1.0 ppm active ingredient, contact time 5 min, Table 7): 4.8 × 10^6 CFU/ml | viable cells ([1]; 1.0 ppm active ingredient, contact time 10 min, Table 6): 2.7 × 10^5 CFU/ml | viable cells ([1]; 1.0 ppm active ingredient, contact time 10 min, Table 7): 2.9 × 10^5 CFU/ml | viable cells ([1]; 1.0 ppm active ingredient, contact time 30 min, Table 6): 4.0 × 10^3 CFU/ml | viable cells ([1]; 1.0 ppm active ingredient, contact time 30 min, Table 7): 8.8 × 10^3 CFU/ml | viable cells ([1]; 1.0 ppm active ingredient, contact time 90 min, Table 6): <10^2 CFU/ml | viable cells ([1]; 1.0 ppm active ingredient, contact time 90 min, Table 7): <10^2 CFU/ml | viable cells ([1]; 1.5 ppm active ingredient, contact time 5 min, Table 6): 3.3 × 10^6 CFU/ml | viable cells ([1]; 1.5 ppm active ingredient, contact time 5 min, Table 7): 4.3 × 10^6 CFU/ml | viable cells ([1]; 1.5 ppm active ingredient, contact time 10 min, Table 6): 5.0 × 10^4 CFU/ml | viable cells ([1]; 1.5 ppm active ingredient, contact time 10 min, Table 7): 3.0 × 10^4 CFU/ml | viable cells ([1]; 1.5 ppm active ingredient, contact time 30 min, Table 6): 2.0 × 10^2 CFU/ml | viable cells ([1]; 1.5 ppm active ingredient, contact time 30 min, Table 7): <10^2 CFU/ml | viable cells ([1]; 1.5 ppm active ingredient, contact time 90 min, Table 6): <10^2 CFU/ml | viable cells ([1]; 1.5 ppm active ingredient, contact time 90 min, Table 7): <10^2 CFU/ml | viable cells ([1]; 2.0 ppm active ingredient, contact time 5 min, Table 6): 1.0 × 10^5 CFU/ml | viable cells ([1]; 2.0 ppm active ingredient, contact time 5 min, Table 7): 3.2 × 10^5 CFU/ml | viable cells ([1]; 2.0 ppm active ingredient, contact time 10 min, Table 6): 2.0 × 10^4 CFU/ml | viable cells ([1]; 2.0 ppm active ingredient, contact time 10 min, Table 7): 1.2 × 10^4 CFU/ml | viable cells ([1]; 2.0 ppm active ingredient, contact time 30 min, Table 6): <10^2 CFU/ml | viable cells ([1]; 2.0 ppm active ingredient, contact time 30 min, Table 7): <10^2 CFU/ml | viable cells ([1]; 2.0 ppm active ingredient, contact time 90 min, Table 6): <10^2 CFU/ml | viable cells ([1]; 2.0 ppm active ingredient, contact time 90 min, Table 7): <10^2 CFU/ml

CC1(C)C(=O)N(Cl)C(=O)N1Br [Compound A2, 1-bromo-3-chloro-5,5-dimethylhydantoin]
Volume of Ammonia [2, 3]: 40 ppm | Volume of Hydrogen sulfide [2, 3]: 5.0 ppm | Volume of Methyl mercaptan [2, 3]: 10 ppm | Volume of Ammonia [2, 4]: 40 ppm | Volume of Hydrogen sulfide [2, 4]: 5.0 ppm | Volume of Methyl mercaptan [2, 4]: 10 ppm | Volume of Ammonia [2, 5]: 40 ppm | Volume of Hydrogen sulfide [2, 5]: 5.0 ppm | Volume of Methyl mercaptan [2, 5]: 10 ppm | Volume of Ammonia [2, 6]: 40 ppm | Volume of Hydrogen sulfide [2, 6]: 5.0 ppm | Volume of Methyl mercaptan [2, 6]: 10 ppm | Volume of Ammonia [2, 7]: 10 ppm | Volume of Hydrogen sulfide [2, 7]: 2.5 ppm | Volume of Methyl mercaptan [2, 7]: 0.5 ppm | Volume of Ammonia [2, 8]: 40 ppm | Volume of Hydrogen sulfide [2, 8]: 5.0 ppm | Volume of Methyl mercaptan [2, 8]: 10 ppm | Volume of Ammonia [2, 9]: 20 ppm | Volume of Hydrogen sulfide [2, 9]: 5.0 ppm | Volume of Methyl mercaptan [2, 9]: 5.0 ppm
